Experimental data: patent US20260042764A1, “COMPOSITIONS AND METHODS FOR INHIBITION OF KRAS” (TheRas, Inc., priority 2022, published 2026)

Key:
[1] = molecular target: T1, Avi-KRAS WT (1-169) GppNHp/RAF1 RBD-3xFLAG (52-151) (Homo sapiens, UniProt P01116); test: Raf1-KRAS WT-GppNHP disruption HTRF assay (Biological Example 1); type: binding
T1 construct: Avi-KRAS WT (1-169)
Method in brief: (§1)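 Protein mix, 1 h RT, 700 rpm; reagent mix, 1 h RT, 700 rpm; HTRF read. Buffer Tris pH 7.5/NaCl/MgCl2/BSA/Tween, 10% DMSO. Output % activity, DMSO = 100%.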

[2] = molecular target: T2, Avi-KRAS G12R (1-169) GppNHp/RAF1 RBD-3xFLAG (52-151) (Homo sapiens, UniProt P01116, G12R); test: Raf1-KRAS G12R-GppNHP disruption HTRF assay (Biological Example 1); type: binding
T2 construct: Avi-KRAS G12R (1-169)
Method in brief: as §1

[3] = molecular target: T3, Avi-KRAS G12V (1-169) GppNHp/RAF1 RBD-3xFLAG (52-151) (Homo sapiens, UniProt P01116, G12V); test: Raf1-KRAS G12V-GppNHP disruption HTRF assay (Biological Example 1); type: binding
T3 construct: Avi-KRAS G12V (1-169)
Method in brief: as §1

SW620 cells (KRAS G12V) = test: Cell-based pERK HTRF assay in SW620 cell (Biological Example 4); conditions: Homo sapiens, SW-620, SW620 (KRAS G12V) cells, pERK HTRF
Method in brief: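 SW620 seeded in RPMI/10% FBS, next day dosed 4 h (top 1 μM, half-log, 9 pts, 0.25% DMSO). Lysed, pERK by d2/Eu cryptate HTRF, 4–24 h RT, 615 nm read.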

GP2d cells (KRAS G12D) = test: Cell-based pERK HTRF assay in GP2d cell (Biological Example 2); conditions: GP2d, GP2d (KRAS G12D) cells, pERK HTRF
Method in brief: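 Phospho-ERK in lysed cells was detected by HTRF using Eu cryptate and d2 antibodies, read between 4 and 24 h at room temperature. Prior to lysis, KRAS G12D GP2d cells, seeded the day before in DMEM with 10% FBS, were exposed to compounds for 60 min. Compounds were tested as 9-point half-log curves from 1 μM or 100 nM top, with 0.25% DMSO.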

[4] = molecular target: T4, Avi-KRAS G12D (1-169) GppNHp/RAF1 RBD-3xFLAG (52-151) (Homo sapiens, UniProt P01116, G12D); test: Raf1-KRAS G12D-GppNHP disruption HTRF assay (Biological Example 1); type: binding
T4 construct: Avi-KRAS G12D (1-169)
Method in brief: as §1

[5] = KRAS WT, GppNHp-loaded, class symbols
[6] = KRAS G12R, GppNHp-loaded, class symbols
[7] = KRAS G12V, GppNHp-loaded, class symbols
[8] = KRAS G12D, GppNHp-loaded, class symbols

T1 sequence (P01116 1-169 isoform P01116-2): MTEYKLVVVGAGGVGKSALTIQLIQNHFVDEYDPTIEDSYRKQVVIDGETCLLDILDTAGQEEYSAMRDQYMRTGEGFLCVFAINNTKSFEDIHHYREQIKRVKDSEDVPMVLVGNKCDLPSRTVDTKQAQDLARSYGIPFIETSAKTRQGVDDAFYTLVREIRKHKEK
T4 sequence (P01116 1-169 isoform P01116-2 G12D): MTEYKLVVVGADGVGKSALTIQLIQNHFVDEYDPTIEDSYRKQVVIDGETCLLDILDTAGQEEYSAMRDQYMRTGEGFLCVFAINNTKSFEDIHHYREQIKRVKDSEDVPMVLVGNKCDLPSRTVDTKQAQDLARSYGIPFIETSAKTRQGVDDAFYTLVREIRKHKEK
T3 sequence (P01116 1-169 isoform P01116-2 G12V): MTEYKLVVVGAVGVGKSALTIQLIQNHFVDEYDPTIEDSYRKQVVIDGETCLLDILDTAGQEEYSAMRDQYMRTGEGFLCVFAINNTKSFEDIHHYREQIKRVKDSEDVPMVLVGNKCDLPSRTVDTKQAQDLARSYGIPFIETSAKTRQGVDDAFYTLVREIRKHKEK
T2 sequence (P01116 1-169 isoform P01116-2 G12R): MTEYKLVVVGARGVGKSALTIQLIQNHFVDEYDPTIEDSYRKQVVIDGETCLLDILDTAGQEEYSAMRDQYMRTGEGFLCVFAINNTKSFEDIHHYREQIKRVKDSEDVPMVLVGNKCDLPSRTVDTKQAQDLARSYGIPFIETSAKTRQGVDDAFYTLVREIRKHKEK

Compound | IC50 [1, 5] [nM] | IC50 [2, 6] [nM] | IC50 [3, 7] [nM] | IC50 (SW620 cells (KRAS G12V); class symbols) [nM] | IC50 (GP2d cells (KRAS G12D); class symbols) [nM] | IC50 [4, 8] [nM] | IC50 ([1]; KRAS WT-GppNHp/RAF1 RBD HTRF) [nM] | IC50 ([2]; KRAS G12R-GppNHp/RAF1 RBD HTRF) [nM] | IC50 ([3]; KRAS G12V-GppNHp/RAF1 RBD HTRF) [nM] | IC50 (SW620 cells (KRAS G12V)) [nM] | IC50 (GP2d cells (KRAS G12D)) [nM] | IC50 ([4]; KRAS G12D-GppNHp/RAF1 RBD HTRF) [nM]
CC(C)C(=O)N1CC[C@H](N(CCF)c2nc(OC[C@@]34CCCN3C[C@H](F)C4)nc3c(F)c(-c4ccc(F)c5sc(N)c(C#N)c45)c(C(F)(F)F)cc23)C1 (atropisomer, axis not shown) [Compound 814] | 100 to 1000 | < 100 | 100 to 1000 | < 100 | < 100 | < 100 | – | – | – | – | – | –
C[C@@H]1C[C@H](N(C)c2nc(OC[C@@]34CCCN3C[C@H](F)C4)nc3c(F)c(-c4ccc(F)c5sc(N)c(C#N)c45)c(C(F)(F)F)cc23)CN1C(=O)C1CC1 [Compound 443] | – | – | – | – | – | – | 100 to 1000 | 100 to 1000 | 100 to 1000 | < 100 | < 100 | 100 to 1000
CCN(c1nc(OC[C@@]23CCCN2C[C@H](F)C3)nc2c(F)c(-c3ccc(F)c4sc(N)c(C#N)c34)c(C(F)(F)F)cc12)[C@H]1CCN(C(=O)[C@H](C)OC)[C@@H]1C (atropisomer, axis not shown) [Compound 781] | < 100 | < 100 | 100 to 1000 | < 100 | < 100 | < 100 | – | – | – | – | – | –
N#Cc1c(N)sc2c(F)ccc(-c3c(C(F)(F)F)cc4c(N5[C@@H]6CO[C@H]7C6OC[C@H]75)nc(OC[C@@]56CCCN5C[C@H](F)C6)nc4c3F)c12 [Compound 382] | – | – | – | – | – | – | 100 to 1000 | 1000 to 10000 | 1000 to 10000 | < 100 | < 100 | 100 to 1000
N#Cc1c(N)sc2c(F)ccc(-c3c(C(F)(F)F)cc4c(N5CCC[C@@H](CO)C5)nc(OC[C@@]56CCCN5C[C@H](F)C6)nc4c3F)c12 [Compound 316] | – | – | – | – | – | – | 100 to 1000 | 100 to 1000 | 1000 to 10000 | < 100 | < 100 | 100 to 1000
CN(C)C(=O)[C@H]1CN(c2nc(OC[C@@]34CCCN3C[C@H](F)C4)nc3c(F)c(-c4ccc(F)c5sc(N)c(C#N)c45)c(C(F)(F)F)cc23)CCO1 [Compound 465] | – | – | – | – | – | – | 100 to 1000 | 100 to 1000 | 100 to 1000 | < 100 | < 100 | < 100

Results, then the compound that gave them:

IC50 [1, 5] [nM] | IC50 [2, 6] [nM] | IC50 [3, 7] [nM] | IC50 (SW620 cells (KRAS G12V); class symbols) [nM] | IC50 (GP2d cells (KRAS G12D); class symbols) [nM] | IC50 [4, 8] [nM] | IC50 ([1]; KRAS WT-GppNHp/RAF1 RBD HTRF) [nM] | IC50 ([2]; KRAS G12R-GppNHp/RAF1 RBD HTRF) [nM] | IC50 ([3]; KRAS G12V-GppNHp/RAF1 RBD HTRF) [nM] | IC50 (SW620 cells (KRAS G12V)) [nM] | IC50 (GP2d cells (KRAS G12D)) [nM] | IC50 ([4]; KRAS G12D-GppNHp/RAF1 RBD HTRF) [nM] | Compound
< 100 | < 100 | < 100 | < 100 | < 100 | < 100 | – | – | – | – | – | – | CCN(c1nc(OC[C@@]23CCCN2C[C@H](F)C3)nc2c(F)c(-c3ccc(F)c4sc(N)c(C#N)c34)c(C(F)(F)F)cc12)[C@H]1CCN(C(=O)N2CC(F)C2)[C@@H]1C (atropisomer, axis not shown) [Compound 780]
100 to 1000 | 100 to 1000 | 100 to 1000 | < 100 | < 100 | 100 to 1000 | – | – | – | – | – | – | CCN(c1nc(OC[C@@]23CCCN2C[C@H](F)C3)nc2c(F)c(-c3ccc(F)c4sc(N)c(C#N)c34)c(C(F)(F)F)cc12)[C@H]1C[C@@H](COC)N(C(=O)OC)C1 (atropisomer, axis not shown) [Compound 714]
< 100 | < 100 | 100 to 1000 | < 100 | < 100 | < 100 | – | – | – | – | – | – | CCN(c1nc(OC[C@@]23CCCN2C[C@H](F)C3)nc2c(F)c(-c3ccc(F)c4sc(N)c(C#N)c34)c(C(F)(F)F)cc12)[C@H]1C[C@H]2CN(C(C)C)C(=O)N2C1 (atropisomer, axis not shown) [Compound 784]
100 to 1000 | 100 to 1000 | 100 to 1000 | < 100 | < 100 | 100 to 1000 | – | – | – | – | – | – | C=C(F)C(=O)N1CC[C@@H](N(C)c2nc(OC[C@@]34CCCN3C[C@H](F)C4)nc3c(F)c(-c4ccc(F)c5sc(N)c(C#N)c45)c(C(F)(F)F)cc23)[C@H]1C [Compound 669]
< 100 | < 100 | < 100 | < 100 | < 100 | < 100 | – | – | – | – | – | – | CCN(c1nc(OC[C@@]23CCCN2C[C@H](F)C3)nc2c(F)c(-c3ccc(F)c4sc(N)c(C#N)c34)c(C(F)(F)F)cc12)[C@H]1CCN(C(=O)c2cn(C)nn2)C1 (atropisomer, axis not shown) [Compound 725]
